Experimental data published in patent EP0556947A1, “Use of M1-selective antimuscarinic pyridobenzodiazepinones for the treatment and prevention of axial myopia” (MERCK & CO. INC., priority 1992, dated 1993).
Like-named read-outs stand apart in the source and are kept apart here.

How the values were obtained:
M₁ receptors = biological target: T1, M₁ receptors (Rattus norvegicus, UniProt P08482); experiment: ³H-pirenzepine radioligand binding assay, rat cerebral cortex; conditions: for selectivity for M₁ than for M₃ receptors: M₁ (rat cerebral cortex) versus M₃ (rabbit iris + ciliary body) binding; for Ki: read-out: M1 Ki
T1 construct: M₁ receptors in rat cerebral cortex were labeled with ³H-pirenzepine; from tissue; host or cells: rat cerebral cortex
T1 sequence (P08482 1-460): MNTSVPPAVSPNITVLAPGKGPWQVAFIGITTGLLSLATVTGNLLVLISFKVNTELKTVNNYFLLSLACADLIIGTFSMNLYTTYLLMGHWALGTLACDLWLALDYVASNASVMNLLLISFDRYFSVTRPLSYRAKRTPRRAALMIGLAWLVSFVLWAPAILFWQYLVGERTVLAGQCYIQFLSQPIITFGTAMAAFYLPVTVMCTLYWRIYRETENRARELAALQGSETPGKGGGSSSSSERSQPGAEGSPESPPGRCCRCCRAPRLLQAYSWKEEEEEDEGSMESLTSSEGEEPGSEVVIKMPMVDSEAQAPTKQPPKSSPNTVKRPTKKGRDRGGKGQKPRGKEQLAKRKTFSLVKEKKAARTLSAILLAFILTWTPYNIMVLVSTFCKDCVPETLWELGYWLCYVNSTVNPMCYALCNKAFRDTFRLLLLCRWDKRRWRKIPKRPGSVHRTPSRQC

M₂ receptors = biological target: T2, M₂ receptors (Rattus norvegicus, UniProt P10980); experiment: ³H-AFDX-384 radioligand binding assay, rat heart; conditions: ³H AFDX-384 binding; for Ki: mean of 3-7 determinations ± SEM, read-out: M2 Ki
T2 construct: ³H-AFDX-384 labeled M₂ receptors in rat heart; from tissue; host or cells: rat heart
T2 sequence (P10980 1-466): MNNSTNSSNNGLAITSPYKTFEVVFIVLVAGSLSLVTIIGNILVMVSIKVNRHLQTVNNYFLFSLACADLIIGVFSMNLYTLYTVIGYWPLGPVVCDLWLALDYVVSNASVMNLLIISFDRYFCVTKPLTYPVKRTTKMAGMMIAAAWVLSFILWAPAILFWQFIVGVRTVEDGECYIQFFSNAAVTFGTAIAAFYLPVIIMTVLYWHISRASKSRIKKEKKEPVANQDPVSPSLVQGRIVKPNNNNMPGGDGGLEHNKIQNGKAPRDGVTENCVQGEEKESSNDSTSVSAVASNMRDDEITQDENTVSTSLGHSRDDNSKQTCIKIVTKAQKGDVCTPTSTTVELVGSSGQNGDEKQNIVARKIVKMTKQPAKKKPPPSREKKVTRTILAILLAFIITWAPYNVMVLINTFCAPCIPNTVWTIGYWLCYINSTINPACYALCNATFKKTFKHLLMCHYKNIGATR

M₃ receptors = biological target: T3, M₃ receptors (Oryctolagus cuniculus, UniProt G1U308); experiment: ³H-QNB radioligand binding assay, rabbit iris + ciliary body (minus ciliary processes)
T3 construct: M₃ receptors in rabbit iris + ciliary body; from tissue; host or cells: rabbit iris + ciliary body (minus ciliary processes)

[1] = test system: female Dunkin Hartley albino guinea pigs; experiment: guinea pig maximization test (sensitization); format: in vivo; conditions: challenge phase, readings on days 24 and 25
Procedure: The guinea pig maximization test is required by the U.S. Food and Drug Administration of all drugs intended for ophthalmic administration. […] In Phase I, which is the induction phase, on day 1 two intradermal injections at the highest generally tolerated concentration of the test material were administered in the shaved intercapsular area (O.1ml of the test agent in a 50:50 mixture of Freund's complete adjuvant and distilled water). On day 7, approximately 400mg of a mixture of 10% sodium laurel sulfate in petrolatum was applied to the shaved intercapsular area. On day 8, 400mg of a mixture of the test compound in petrolatum was applied, on a 2 x 4 cm piece of Whatman paper to the shaved intercapsular area, along with Blenderm tape.
In Phase II, which is the challenge phase, on day 22, 200mg of petrolatum was applied to the shaved right flank, while 200mg of test compound at the highest non-irritant concentration (micronized in petrolatum) was applied to the shaved left flank, with each application being occluded for 24 hours.

Form-deprivation myopia = experiment: form-deprivation myopia model in chicks (eyelid suture); format: in vivo, White Leghorn chicks; conditions: expected from M₁ potency relative to pirenzepine; no data reported
Procedure: Form-deprivation myopia is induced in day-old White Leghorn chicks under aseptic conditions and other anesthesia by eyelid suture to one eye. The chicks are maintained on a 12-hour light:dark cycle. […] Drug is injected daily subconjunctivally during the light cycle. At two weeks of age the animals are sacrificed and axial and equatorial dimensions of unfixed eyes are measured with vernier calipers independently by two observers.

myopia = conditions: 1.0% atropine applied topically at bedtime, treated eye, one year per eye; cited from earlier work
[2] = test system: axial enlargement of the eye; conditions: ocular administration under image deprivation; cited from earlier work
[3] = ³H Pirenzepine binding, rat cerebral cortex
[4] = ³H-QNB binding, rabbit iris + ciliary body (minus ciliary processes)
[5] = ³H-QNB binding, rabbit iris + ciliary body (minus ciliary processes), mean of 3-7 determinations ± SEM, read-out: M3 Ki

T3 sequence (G1U308 1-599): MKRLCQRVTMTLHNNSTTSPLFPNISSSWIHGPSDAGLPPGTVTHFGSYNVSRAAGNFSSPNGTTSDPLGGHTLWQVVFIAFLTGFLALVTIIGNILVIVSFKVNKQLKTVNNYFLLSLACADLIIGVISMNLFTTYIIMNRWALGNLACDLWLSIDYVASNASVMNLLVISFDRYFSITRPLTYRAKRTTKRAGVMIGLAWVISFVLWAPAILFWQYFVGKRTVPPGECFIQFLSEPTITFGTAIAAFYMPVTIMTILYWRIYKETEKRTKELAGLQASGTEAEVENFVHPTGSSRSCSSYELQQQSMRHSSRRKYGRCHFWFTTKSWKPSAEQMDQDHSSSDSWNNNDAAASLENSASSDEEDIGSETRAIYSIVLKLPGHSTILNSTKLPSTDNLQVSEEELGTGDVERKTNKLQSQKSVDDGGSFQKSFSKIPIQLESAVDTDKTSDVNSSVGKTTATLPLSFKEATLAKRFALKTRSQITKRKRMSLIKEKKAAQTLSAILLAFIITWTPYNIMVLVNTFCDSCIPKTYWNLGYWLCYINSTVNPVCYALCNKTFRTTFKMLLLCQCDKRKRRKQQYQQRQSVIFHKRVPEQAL

Compound	selectivity for M₁ than for M₃ receptors (M₁ receptors) [fold]	Ki (M₁ receptors) [nM]	M1 nH (Hill Coefficient) (M₁ receptors; [3])	M2 nH (Hill Coefficient) (M₂ receptors)	Ki (M₂ receptors) [nM]	M3 nH (Hill Coefficient) (M₃ receptors; [4])	Ki (M₃ receptors; [5]) [nM]	grade of skin reaction ([1]; in any test animal)	effectiveness in myopia therapy (Form-deprivation myopia)	other results
CN1CCC(C(=O)N2c3ccccc3C(=O)Nc3cccnc32)CC1 [Nuvenzepine, 11-(1-Methylpiperidin-4-carbonyl)-5,11-dihydro-6H -pyrido[2,3-b][1,4]benzodiazepin-6-one]	20	1.5	0.9	1.03	248	0.80	29.7	0	at least as effective as pirenzepine	–
CN1[C@@H]2CC[C@H]1C[C@@H](OC(=O)C(CO)c1ccccc1)C2 (some centres unmarked) [Atropine, reference compound]	–	–	–	1.05	–	1.1	–	–	–	M1 nH (Hill Coefficient) (M₁ receptors): 1.5; Ki (M₃ receptors): 0.37 nM; progression of the myopia (myopia): halted
CN1CCc2cccc3c2[C@H]1Cc1ccc(O)c(O)c1-3 [apOmorphine]	–	–	–	–	–	–	–	–	–	axial enlargement of the eye [2]: inhibit or actually prevent
CN1CCCC(C(=O)N2c3ccccc3C(=O)Nc3cccnc32)C1 (centres unmarked) [Rispenzepine, 11-(1-Methylpiperidin-3-carbonyl)-5,11-dihydro-6H -pyrido[2,3-b][1,4]benzodiazepin-6-one]	15	2.61	0.9	1.00	226	0.84	38.9	0	at least as effective as pirenzepine	–
CN1CCN(CC(=O)N2c3ccccc3C(=O)Nc3cccnc32)CC1 [Pirenzepine, reference compound]	–	–	–	–	–	–	–	–	–	grade of skin reaction ([1]; in six of nine animals): 1; grade of skin reaction ([1]; in two of nine animals): 2
